Results as given in patent publication US12612410B2 (CHILDREN'S HOSPITAL MEDICAL CENTER, priority 2020, dated 2026).

Assays:
[1] = target: T1, FLT3 (Homo sapiens, UniProt P36888); assay: RBC HotSpot Kinase Assay, FLT3; type: biochemical; parameters: purchased Reaction Biology (RBC), HotSpot kinase assay; conditions: isolated kinase, 33P-ATP
T1 sequence (P36888 27-993): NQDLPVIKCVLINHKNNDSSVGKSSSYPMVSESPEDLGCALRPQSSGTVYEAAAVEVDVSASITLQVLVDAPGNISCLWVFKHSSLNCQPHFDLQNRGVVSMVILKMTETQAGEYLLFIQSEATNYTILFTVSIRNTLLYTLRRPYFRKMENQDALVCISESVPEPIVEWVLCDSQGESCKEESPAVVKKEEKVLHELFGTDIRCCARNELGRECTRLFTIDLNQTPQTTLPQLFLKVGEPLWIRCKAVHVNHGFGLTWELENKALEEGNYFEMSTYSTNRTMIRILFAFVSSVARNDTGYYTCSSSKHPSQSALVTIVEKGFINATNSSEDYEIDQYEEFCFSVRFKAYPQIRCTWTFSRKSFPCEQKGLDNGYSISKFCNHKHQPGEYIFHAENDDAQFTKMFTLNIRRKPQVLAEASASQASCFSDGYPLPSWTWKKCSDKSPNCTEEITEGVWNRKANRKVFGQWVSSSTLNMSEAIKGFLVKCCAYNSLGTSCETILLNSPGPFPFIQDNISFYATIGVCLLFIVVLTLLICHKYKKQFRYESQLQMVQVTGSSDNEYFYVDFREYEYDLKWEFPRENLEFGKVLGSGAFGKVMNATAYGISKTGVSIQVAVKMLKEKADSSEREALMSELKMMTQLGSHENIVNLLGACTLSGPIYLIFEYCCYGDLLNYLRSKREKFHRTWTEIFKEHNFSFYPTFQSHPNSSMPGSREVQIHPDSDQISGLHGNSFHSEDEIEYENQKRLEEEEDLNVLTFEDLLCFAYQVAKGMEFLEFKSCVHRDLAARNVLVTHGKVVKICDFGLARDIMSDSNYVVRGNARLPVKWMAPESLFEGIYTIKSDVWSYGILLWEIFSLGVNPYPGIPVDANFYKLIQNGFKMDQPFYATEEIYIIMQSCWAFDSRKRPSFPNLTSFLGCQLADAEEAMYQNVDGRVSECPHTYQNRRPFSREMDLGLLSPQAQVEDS
In short: (§1)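 Steps: substrate in reaction buffer (20 mM Hepes pH 7.5, 10 mM MgCl2, 2 mM DTT, 1% DMSO); cofactors added; kinase added; compound dispensed acoustically, 20 min RT; 33P-ATP added; 2 h RT; P81 filter capture.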

[2] = target: T2, IRAK1 (Homo sapiens, UniProt P51617); assay: RBC HotSpot Kinase Assay, IRAK1; type: biochemical; conditions: isolated kinase, 33P-ATP
T2 construct: purchased Reaction Biology (RBC), HotSpot kinase assay
In short: as §1

T2 sequence (P51617 whole entry): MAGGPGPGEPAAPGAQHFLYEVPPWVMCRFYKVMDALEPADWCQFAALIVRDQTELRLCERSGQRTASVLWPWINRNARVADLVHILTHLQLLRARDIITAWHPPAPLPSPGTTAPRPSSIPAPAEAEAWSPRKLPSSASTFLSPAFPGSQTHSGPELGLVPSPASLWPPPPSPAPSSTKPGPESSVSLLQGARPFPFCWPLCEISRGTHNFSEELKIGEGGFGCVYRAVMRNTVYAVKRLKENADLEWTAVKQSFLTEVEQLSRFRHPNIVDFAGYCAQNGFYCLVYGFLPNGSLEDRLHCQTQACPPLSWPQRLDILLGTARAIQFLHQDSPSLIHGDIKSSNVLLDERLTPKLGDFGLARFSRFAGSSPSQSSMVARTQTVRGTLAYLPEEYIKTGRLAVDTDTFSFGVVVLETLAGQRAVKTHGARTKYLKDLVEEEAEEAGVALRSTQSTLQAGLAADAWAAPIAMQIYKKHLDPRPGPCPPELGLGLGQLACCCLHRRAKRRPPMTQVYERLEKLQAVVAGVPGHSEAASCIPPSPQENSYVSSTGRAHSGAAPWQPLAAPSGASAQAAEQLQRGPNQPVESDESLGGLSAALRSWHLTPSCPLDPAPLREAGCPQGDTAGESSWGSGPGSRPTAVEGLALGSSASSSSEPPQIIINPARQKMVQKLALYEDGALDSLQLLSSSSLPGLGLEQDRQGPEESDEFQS

CC(O)(c1cn2c(-c3cccc(N[C@H]4CNC[C@@H]4F)n3)cnc2cn1)C(F)(F)F (single isomer, unassigned) [Compound 77] gave an IC50 [1] of 0.9 nM and an IC50 [2] of 237 nM.
CC(O)(c1cn2c(-c3cccc(N[C@H]4CNC[C@@H]4F)n3)cnc2cn1)C(F)(F)F (single isomer, unassigned) [Compound 78] was tested, and the IC50 [1] was < 0.5 nM and the IC50 [2] was 66 nM.
With CC(O)(c1cn2c(-c3cccc(N[C@H]4CNCC[C@@H]4F)n3)cnc2cn1)C(F)(F)F (single isomer, unassigned) [Compound 80] the IC50 [1] was 0.6 nM and the IC50 [2] was 64 nM.
For CC(O)(c1cn2c(-c3cccc(N[C@@H]4CCCNC4)n3)cnc2cn1)C(F)(F)F (single isomer, unassigned) [Compound 81], the IC50 [1] was < 0.5 nM and the IC50 [2] was 31 nM.
With CC(O)(c1cn2c(-c3cccc(N[C@H]4CNCC[C@@H]4F)n3)cnc2cn1)C(F)(F)F (single isomer, unassigned) [Compound 82] the IC50 [1] was < 0.5 nM and the IC50 [2] was 16 nM.
In the case of CC1(c2cn3c(-c4cccc(N[C@H]5CNC[C@@H]5F)n4)cnc3cn2)CC1 [Compound 1, N-((3S,4S)-4-fluoropyrrolidin-3-yl)-6-(6-(1-methylcyclopropyl)imidazo[1,2-a]pyrazin-3-yl)pyridin-2-amine], the IC50 [1] is reported as 0.6 nM and the IC50 [2] is reported as 63 nM.
Compound CC1(c2cn3c(-c4cccc(N[C@@H]5CCNC5)n4)cnc3cn2)CC1 [Compound 3, (R)-6-(6-(1-methylcyclopropyl)imidazo[1,2-a]pyrazin-3-yl)-N-(pyrrolidin-3-yl)pyridin-2-amine] has an IC50 [1] of 0.7 nM and an IC50 [2] of 88 nM.
In the case of CC1(c2cn3c(-c4cccc(N[C@H]5CNCC56CC6)n4)cnc3cn2)CC1 [Compound 5, (R)-N-(6-(6-(1-methylcyclopropyl)imidazo[1,2-a]pyrazin-3-yl)pyridin-2-yl)-5-azaspiro[2.4]heptan-7-amine], the IC50 [1] is reported as < 0.5 nM and the IC50 [2] is reported as 114 nM.
For FC(F)(F)C1(c2cn3c(-c4cccc(N[C@@H]5CCNC5)n4)cnc3cn2)CC1 [Compound 10, (R)-N-(pyrrolidin-3-yl)-6-(6-(1-(trifluoromethyl)cyclopropyl)imidazo[1,2-a]pyrazin-3-yl)pyridin-2-amine], the IC50 [1] was < 0.5 nM and the IC50 [2] was 155 nM.
FC(F)c1cn2c(-c3cccc(N[C@H]4CNC[C@@H]4F)n3)cnc2cn1 [Compound 16, 6-(6-(difluoromethyl)imidazo[1,2-a]pyrazin-3-yl)-N-((3S,4S)-4-fluoropyrrolidin-3-yl)pyridin-2-amine] was tested, and the IC50 [1] was < 0.5 nM and the IC50 [2] was 60 nM.
FC(F)c1cn2c(-c3cccc(N[C@H]4CNCC[C@@H]4F)n3)cnc2cn1 [Compound 25, 6-(6-(difluoromethyl)imidazo[1,2-a]pyrazin-3-yl)-N-((3S,4S)-4-fluoropiperidin-3-yl)pyridin-2-amine] was tested, and the IC50 [1] was < 0.5 nM and the IC50 [2] was 144 nM.
With CC(C)(O)c1cn2c(-c3cccc(N[C@@H]4CCCNC4)n3)cnc2cn1 [Compound 30, (R)-2-(3-(6-(piperidin-3-ylamino)pyridin-2-yl)imidazo[1,2-a]pyrazin-6-yl)propan-2-ol] the IC50 [1] was < 0.5 nM and the IC50 [2] was 58 nM.
For CC(C)(O)c1cn2c(-c3cccc(N[C@H]4CNCC[C@@H]4F)n3)cnc2cn1 [Compound 31, 2-(3-(6-(((3S,4S)-4-fluoropiperidin-3-yl)amino)pyridin-2-yl)imidazo[1,2-a]pyrazin-6-yl)propan-2-ol], the IC50 [1] was < 0.5 nM and the IC50 [2] was 23 nM.
In the case of CC(C)(O)c1cn2c(-c3nc(N[C@H]4CNC[C@@H]4F)c(F)cc3F)cnc2cn1 [Compound 33, 2-(3-(3,5-difluoro-6-(((3S,4S)-4-fluoropyrrolidin-3-yl)amino)pyridin-2-yl)imidazo[1,2-a]pyrazin-6-yl)propan-2-ol], the IC50 [1] is reported as 0.6 nM and the IC50 [2] is reported as 61 nM.
For CC(C)(O)c1cn2c(-c3nc(N[C@@H]4CCCNC4)c(F)cc3F)cnc2cn1 [Compound 34, (R)-2-(3-(3,5-difluoro-6-(piperidin-3-ylamino)pyridin-2-yl)imidazo[1,2-a]pyrazin-6-yl)propan-2-ol], the IC50 [1] was 4 nM and the IC50 [2] was 47 nM.
